Measurements reported in patent US10035801B2, “Pyrazolo compounds and uses thereof” (CONSTELLATION PHARMACEUTICALS, INC., priority 2013, dated 2018).
Where two headings read alike, the source gives them in different places.

Target: T1, KDM5A (Homo sapiens, UniProt P29375)
T1 construct: Full length KDM5A enzyme was expressed and purified inhouse; made in house
Test: KDM5 enzyme assay, KDM5A HTRF (Example 463)
Type: biochemical

[1] = compounds of Examples 1-432, read-out: Example 463 Assay KDM5A HTRF IC50

T1 sequence (P29375 whole entry): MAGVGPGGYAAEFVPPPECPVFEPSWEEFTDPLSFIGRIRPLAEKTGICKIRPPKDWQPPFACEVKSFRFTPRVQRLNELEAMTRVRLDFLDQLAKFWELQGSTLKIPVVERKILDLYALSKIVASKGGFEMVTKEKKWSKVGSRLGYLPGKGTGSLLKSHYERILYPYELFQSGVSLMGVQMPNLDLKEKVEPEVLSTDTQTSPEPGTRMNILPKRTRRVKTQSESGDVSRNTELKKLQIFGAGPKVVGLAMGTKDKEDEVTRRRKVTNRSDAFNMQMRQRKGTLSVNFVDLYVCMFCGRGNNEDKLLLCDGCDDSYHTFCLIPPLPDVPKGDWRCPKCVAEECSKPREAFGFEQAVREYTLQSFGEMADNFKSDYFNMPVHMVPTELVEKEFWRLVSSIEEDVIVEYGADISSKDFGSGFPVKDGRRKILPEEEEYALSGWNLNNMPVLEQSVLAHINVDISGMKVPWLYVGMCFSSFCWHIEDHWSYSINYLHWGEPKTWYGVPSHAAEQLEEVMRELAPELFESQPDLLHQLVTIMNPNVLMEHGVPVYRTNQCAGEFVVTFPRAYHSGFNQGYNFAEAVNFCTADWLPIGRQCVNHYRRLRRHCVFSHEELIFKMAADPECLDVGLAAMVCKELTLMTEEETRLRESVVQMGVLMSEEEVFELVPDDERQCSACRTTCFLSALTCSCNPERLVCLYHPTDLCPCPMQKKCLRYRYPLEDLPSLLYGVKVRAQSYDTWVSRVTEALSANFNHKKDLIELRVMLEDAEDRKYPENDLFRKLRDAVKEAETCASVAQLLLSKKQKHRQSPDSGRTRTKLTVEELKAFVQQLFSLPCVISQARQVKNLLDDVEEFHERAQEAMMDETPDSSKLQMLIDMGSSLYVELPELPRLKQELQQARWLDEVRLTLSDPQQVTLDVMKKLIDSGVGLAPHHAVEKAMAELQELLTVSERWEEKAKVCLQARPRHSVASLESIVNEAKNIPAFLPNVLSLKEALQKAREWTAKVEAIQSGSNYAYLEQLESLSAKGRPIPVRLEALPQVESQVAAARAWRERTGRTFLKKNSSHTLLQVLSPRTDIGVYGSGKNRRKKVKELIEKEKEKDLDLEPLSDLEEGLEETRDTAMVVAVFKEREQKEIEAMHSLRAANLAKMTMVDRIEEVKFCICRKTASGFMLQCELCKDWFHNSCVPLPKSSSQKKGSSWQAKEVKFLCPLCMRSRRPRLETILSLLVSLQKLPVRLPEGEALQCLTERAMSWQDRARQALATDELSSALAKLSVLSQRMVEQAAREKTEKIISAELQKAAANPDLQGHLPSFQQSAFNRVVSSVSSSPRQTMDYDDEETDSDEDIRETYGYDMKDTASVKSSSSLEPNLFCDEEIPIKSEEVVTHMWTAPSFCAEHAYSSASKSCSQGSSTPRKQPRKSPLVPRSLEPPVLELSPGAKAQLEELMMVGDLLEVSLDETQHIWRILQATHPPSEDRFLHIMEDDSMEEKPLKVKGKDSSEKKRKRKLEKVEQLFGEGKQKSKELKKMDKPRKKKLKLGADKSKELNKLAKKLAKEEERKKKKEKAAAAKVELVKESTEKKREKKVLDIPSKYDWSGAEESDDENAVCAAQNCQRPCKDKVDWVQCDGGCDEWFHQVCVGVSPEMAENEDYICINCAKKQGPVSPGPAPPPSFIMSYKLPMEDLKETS
Procedure: Full length KDM5A enzyme was expressed and purified inhouse. Biotin-H3K4me3 peptide was purchased from New England Biolabs. HTRF reagents (containing Eu-labeled H3K4me1-2 antibody, and streptavidin-XL665) were purchased from Cis-Bio International. Plates were read on an Envision multi-label plate reader Perkin Elmer).
The HTRF assay mixture contained 2 nM full length KDM5A enzyme, 100 nM H3K4Me3 peptide substrate, 1 uM 2-OG, 100 uM Fe^2+, 500 uM ascorbate. 50 mM HEPES pH 7.0 buffer, 0.01% Triton-X 100, 2 mM DTT. […] The plates were incubated at room temperature for 60 minutes and then read in the Envision plate reader.

| SMILES | IC50 [1] [nM] | IC50 [nM] |
| --- | --- | --- |
| CC(C)c1c(-c2cn[nH]c2)n(C)c2c(C#N)cnn2c1=O [Example 186] | 49 |  |
| CC(C)c1c(-c2cc(-c3ccccc3)co2)n(C)c2c(C#N)cnn2c1=O [Example 187] | 750 |  |
| CC(C)c1c(-c2ccc(=O)n(C)c2)n(C)c2c(C#N)cnn2c1=O [Example 188] | 240 |  |
| CCn1cc(-c2c(C(C)C)c(=O)n3ncc(C#N)c3n2C)cn1 [Example 189] | 160 |  |
| CC(C)c1c(-c2cc(C3CC3)co2)n(C)c2c(C#N)cnn2c1=O [Example 190] | 57 |  |
| CCc1c(C)n(CC)c2c(C#N)cnn2c1=O [Example 191] | 760 |  |
| CCCn1c(C)c(CC)c(=O)n2ncc(C#N)c12 [Example 192] | 1500 |  |
| CCc1c(C)n(CC2CC2)c2c(C#N)cnn2c1=O [Example 193] | 860 |  |
| CCc1c(C)n(CCOC)c2c(C#N)cnn2c1=O [Example 194] | 2300 |  |
| CCc1c(C)n(CCO)c2c(C#N)cnn2c1=O [Example 195] | 2200 |  |
| Cc1c(C(C)C)c(=O)n2ncc(C#N)c2n1C [Example 196] | 47 |  |
| CC(C)c1c[nH]c2c(C#N)cnn2c1=O [Example 197] |  | 29 |
| CC(C)c1cn(C)c2c(C#N)cnn2c1=O [Example 198] | 610 |  |
| CCOC(=O)c1c(CC)c(=O)n2ncc(C#N)c2n1C [Example 199] | 180 |  |
| CCc1c(C(=O)O)n(C)c2c(C#N)cnn2c1=O [Example 200] | 900 |  |
| CCc1c(C(N)=O)[nH]c2c(C#N)cnn2c1=O [Example 201] | 29 |  |
| CCc1c(-c2cc[nH]c2)[nH]c2c(C#N)cnn2c1=O [Example 202] | 6 |  |
| CC(C)c1c(-c2cc[nH]c2)[nH]c2c(C#N)cnn2c1=O [Example 203] | 11 |  |
| CC(C)c1c(-c2ccc3c(c2)OC(F)(F)O3)[nH]c2c(C#N)cnn2c1=O [Example 204] | 19 |  |
| CC(C)c1c(-c2ccc(C(N)=O)c(F)c2)[nH]c2c(C#N)cnn2c1=O [Example 205] | 23 |  |
| CC(C)c1c(-c2ccc(S(C)(=O)=O)c(F)c2)[nH]c2c(C#N)cnn2c1=O [Example 206] | 21 |  |
| CC(C)c1c(-c2ccc(OC(F)(F)F)c(Cl)c2)[nH]c2c(C#N)cnn2c1=O [Example 207] | 33 |  |
| CC(C)c1c(-c2cc(F)cc(C(N)=O)c2)[nH]c2c(C#N)cnn2c1=O [Example 208] | 9 |  |

| SMILES | IC50 [1] [nM] | IC50 [nM] |
| --- | --- | --- |
| COc1ccc(-c2[nH]c3c(C#N)cnn3c(=O)c2C(C)C)cc1CO [Example 209] | 18 |  |
| CC(C)c1c(-c2ccn(S(C)(=O)=O)c2)[nH]c2c(C#N)cnn2c1=O [Example 210] | 12 |  |
| CC(C)c1c(-c2ccn(C)c2)[nH]c2c(C#N)cnn2c1=O [Example 211] | 24 |  |
| CC(C)c1c(-c2cc3ccccc3[nH]2)[nH]c2c(C#N)cnn2c1=O [Example 212] | 8 |  |
| CC(C)c1c(NC(=O)C2CC2)[nH]c2c(C#N)cnn2c1=O [Example 213] | 18 |  |
| CC(C)c1c(NC(=O)c2ccccc2)[nH]c2c(C#N)cnn2c1=O [Example 214] | 26 |  |
| N#Cc1cnn2c(=O)cc(-c3cccc(Br)c3)[nH]c12 [Example 215] | 410 |  |
| N#Cc1cnn2c(=O)c(Cl)c(-c3ccccc3)[nH]c12 [Example 216] | 20 |  |
| Cc1[nH]c2c(C#N)cnn2c(=O)c1-c1ccccc1 [Example 217] | 2100 |  |
| Cn1c(-c2ccccc2)c(Br)c(=O)n2ncc(C#N)c12 [Example 218] | 8000 |  |
| Cn1c(-c2ccccc2)c(Cl)c(=O)n2ncc(C#N)c12 [Example 219] | 4300 |  |
| Cc1[nH]c2c(C#N)cnn2c(=O)c1Sc1ccccc1Cl [Example 220] | 21000 |  |
| Cc1c(-c2ccccc2)c(=O)n2ncc(C#N)c2n1C [Example 221] | 25000 |  |
| N#Cc1cnn2c(=O)c(CCF)c(-c3ccccc3)[nH]c12 [Example 222] | 12 |  |
| C=CCc1c(-c2ccccc2)[nH]c2c(C#N)cnn2c1=O [Example 223] | 9 |  |
| C=C(C)c1c(-c2ccccc2)[nH]c2c(C#N)cnn2c1=O [Example 224] |  | 25 |
| CC#CCc1c(-c2ccccc2)[nH]c2c(C#N)cnn2c1=O [Example 225] | 5400 |  |
| Cn1c(-c2ccccc2)c(C2CC2)c(=O)n2ncc(C#N)c12 [Example 226] | 370 |  |
| CCc1c(-c2cccc(-c3cnn(C)c3)c2)[nH]c2c(C#N)cnn2c1=O [Example 227] | 13 |  |
| CCc1c(-c2cccc(-c3cnn(C(C)C)c3)c2)[nH]c2c(C#N)cnn2c1=O [Example 228] | 23 |  |
| Cn1c(-c2ccccc2)c(-c2ccncc2)c(=O)n2ncc(C#N)c12 [Example 229] | 9600 |  |
| CCc1c(-c2ccc(-c3ccccc3)cc2)[nH]c2c(C#N)cnn2c1=O [Example 230] | 9 |  |
| C/C=C/Cc1c(-c2ccccc2)[nH]c2c(C#N)cnn2c1=O [Example 231] | 170 |  |

| SMILES | IC50 [1] [nM] | IC50 [nM] |
| --- | --- | --- |
| CCc1c(-c2ccc(Nc3ccc(F)cc3)cc2)[nH]c2c(C#N)cnn2c1=O [Example 232] | 19 |  |
| CCc1c(-c2cccc(NC(=O)OC(C)(C)C)c2)[nH]c2c(C#N)cnn2c1=O [Example 233] | 20 |  |
| N#Cc1cnn2c(=O)c(I)c(-c3ccccc3)[nH]c12 [Example 234] | 15 |  |
| C#CC(C)c1c(-c2ccccc2)[nH]c2c(C#N)cnn2c1=O (stereo not drawn) [Example 235] | 14 |  |
| CCC(C)c1c(-c2ccccc2)[nH]c2c(C#N)cnn2c1=O (stereo not drawn) [Example 236] | 18 |  |
| CC(=O)N1CC=C(c2[nH]c3c(C#N)cnn3c(=O)c2C(C)C)CC1 [Example 237] | 78 |  |
| CCC(=O)N1CC=C(c2[nH]c3c(C#N)cnn3c(=O)c2C(C)C)CC1 [Example 238] | 49 |  |
| C=CC(=O)N1CC=C(c2[nH]c3c(C#N)cnn3c(=O)c2C(C)C)CC1 [Example 239] | 21 |  |
| CC(C)c1c(C2=CCN(C)CC2)[nH]c2c(C#N)cnn2c1=O [Example 240] | 50 |  |
| Cc1nc(Cn2cc(-c3[nH]c4c(C#N)cnn4c(=O)c3C(C)C)cn2)cs1 [Example 241] | 13 |  |
| CC(=O)NCCn1cc(-c2[nH]c3c(C#N)cnn3c(=O)c2C(C)C)cn1 [Example 242] | 27 |  |
| CC(C)c1c(-c2cc(Cl)cc(Cl)c2)[nH]c2c(C#N)cnn2c1=O [Example 243] | 20 |  |
| CC(C)c1c(-c2ccc(S(C)(=O)=O)cc2F)[nH]c2c(C#N)cnn2c1=O [Example 244] | 21 |  |
| CCC(C)(C)n1cc(-c2[nH]c3c(C#N)cnn3c(=O)c2C(C)C)cn1 [Example 245] | 46 |  |
| CC(C)c1c(-c2ccc(F)c(Cl)c2)[nH]c2c(C#N)cnn2c1=O [Example 246] | 22 |  |
| CC(C)c1c(-c2cccc(CCN3CCOCC3)c2)[nH]c2c(C#N)cnn2c1=O [Example 247] | 15 |  |
| CC(C)c1c(-c2cccc(CCN(C)C)c2)[nH]c2c(C#N)cnn2c1=O [Example 248] | 69 |  |
| CC(CO)c1c(-c2ccccc2)[nH]c2c(C#N)cnn2c1=O (stereo not drawn) [Example 249] | 30 |  |
| CC(=O)NCCCCc1c(-c2ccccc2)[nH]c2c(C#N)cnn2c1=O [Example 250] | 5700 |  |
| CC(=O)NCCCc1c(-c2ccccc2)[nH]c2c(C#N)cnn2c1=O [Example 251] | 8000 |  |
| N#Cc1cnn2c(=O)c(CCCCN)c(-c3ccccc3)[nH]c12 [Example 252] | 7630 |  |
| CC(C)c1c(-c2cnn(C(C)c3cscn3)c2)[nH]c2c(C#N)cnn2c1=O (stereo not drawn) [Example 253] | 13 |  |
| CC(C)c1c(-c2cnn(C3CCOCC3)c2)[nH]c2c(C#N)cnn2c1=O [Example 254] | 33 |  |

| SMILES | IC50 [1] [nM] | IC50 [nM] |
| --- | --- | --- |
| COc1cc(-c2[nH]c3c(C#N)cnn3c(=O)c2C(C)C)ccc1C(F)(F)F [Example 255] | 35 |  |
| COC(=O)c1cc(-c2[nH]c3c(C#N)cnn3c(=O)c2C(C)C)ccc1Cl [Example 256] | 15 |  |
| CC(C)c1c(-c2ccc(OC(F)(F)F)cc2)[nH]c2c(C#N)cnn2c1=O [Example 257] |  | 37 |
| Cc1cc(-c2[nH]c3c(C#N)cnn3c(=O)c2C(C)C)ccc1OC(F)(F)F [Example 258] | 44 |  |
| CC(C)c1c(-c2ccc(C3CC3)c(C(F)(F)F)c2)[nH]c2c(C#N)cnn2c1=O [Example 259] | 43 |  |
| CC(C)c1c(-c2ccc3c(c2)CC(C)(C)O3)[nH]c2c(C#N)cnn2c1=O [Example 260] | 36 |  |
| COc1cc(OC)cc(-c2[nH]c3c(C#N)cnn3c(=O)c2C(C)C)c1 [Example 261] | 31 |  |
| CC(C)c1c(-c2ccc(F)c(F)c2)[nH]c2c(C#N)cnn2c1=O [Example 262] | 21 |  |
| CC(C)c1c(-c2ccc(-c3ccccc3)cc2)[nH]c2c(C#N)cnn2c1=O [Example 263] | 28 |  |
| CC(C)c1c(-c2cc(F)cc(Cl)c2)[nH]c2c(C#N)cnn2c1=O [Example 264] | 21 |  |
| CC(C)c1c(-c2cc(C(F)(F)F)cc(C(F)(F)F)c2)[nH]c2c(C#N)cnn2c1=O [Example 265] | 40 |  |
| COc1cc(F)cc(-c2[nH]c3c(C#N)cnn3c(=O)c2C(C)C)c1 [Example 266] | 29 |  |
| CC(C)c1c(-c2cccc(C(N)=O)c2)[nH]c2c(C#N)cnn2c1=O [Example 267] | 9.8 |  |
| CC(C)c1c(-c2ccc(OCC3CC3)cc2)[nH]c2c(C#N)cnn2c1=O [Example 268] | 23 |  |
| CC(C)c1c(-c2cc(F)cc(NC(=O)OCc3ccccc3)c2)[nH]c2c(C#N)cnn2c1=O [Example 269] | 19 |  |
| CC(C)c1c(-c2cccc(-n3cccn3)c2)[nH]c2c(C#N)cnn2c1=O [Example 270] | 13 |  |
| CC(C)c1c(-c2cnn(C3CCCC3O)c2)[nH]c2c(C#N)cnn2c1=O (stereo not drawn) [Example 271] | 24 |  |
| CNS(=O)(=O)c1cccc(-c2[nH]c3c(C#N)cnn3c(=O)c2C(C)C)c1 [Example 273] | 23 |  |
| CC(C)c1c(-c2ccc(C(C)(C)O)cc2)[nH]c2c(C#N)cnn2c1=O [Example 274] | 73 |  |
| CC(C)c1c(-c2ccnc(C(F)(F)F)c2)[nH]c2c(C#N)cnn2c1=O [Example 275] | 34 |  |
| CC(C)c1c(-c2ccc(Oc3ccccc3)nc2)[nH]c2c(C#N)cnn2c1=O [Example 276] | 35 |  |
